From patent US7728128B2, “Dibenzo[c,h][1,5]naphthyridines and their use as DNA probes” (Institut National de la Sante et de la Recherche Medicate …, priority 2006, dated 2010)

Tests used:
[1] = test system: plasmid DNA; assay: absorption of free molecules before and after addition of plasmid DNA; type: physicochemical; parameters: Absorption maxima free dye / Absorption maxima DNA bound dye: unit not given here; conditions: for Absorption maxima free dye: free molecule, before addition of plasmid DNA; for Absorption maxima DNA bound dye: after addition of plasmid DNA
Experimental: (§1) Plasmid dsDNA was purified using a Qiagen Maxiprep kit and used in the supercoiled form for absorption and fluorescence studies. E. coli total RNA was bought from Ambion, dA/dT and dG/dC homopolymers were purchased from Amersham Biosciences. Calf thymus (CT) high-molecular weight DNA and Hoechst 33258 were obtained from Sigma-Aldrich. Ethidium bromide was purchased from Amresco.
(§2) Spectrometry and fluorimetry were performed using a SpectraMax384 (Molecular Devices) and a Luminescence Spectrometer LS50B (Perkin Elmer). Fluorescence emission of compound I in complex with DNA and RNA was measured in 50 mM Na phosphate buffer, pH 7.2 at room temperature. Before use, total E. coli RNA was heated to 100° C. for 1 min and immediately transferred on ice for 5 min before mixing with compound I solution. All measurements were carried out at room temperature (20-23° C.) in solutions protected from light and incubated for ˜10-15 min after dilution. The units of b/dye and bp/dye are defined as moles of RNA bases or DNA base pairs per mole of dye. Quantum yield was measured using quinine sulphate as standard as described in (Iupac Commission on Photochemistry, EPA Newsletter of November 1986, 21-29) using FLUOROMAX-3 Spex Spectrofluorometer (HORIBA) and UVIKON XL Spectrophotometer (SECOMAM).
(§3) Although compound I also stains mitotic chromosomes (FIG. 1D), theoretically it was possible that it binds specifically to DNA-associated proteins (for example histones) rather than to nucleic acids. To resolve this issue, the absorption and emission spectra of free compound I before and after addition of dsDNA were recorded. […] Molar extinction coefficient (EC) of free compound I at 391 nm was measured at 10,800 cm^−1 M^−1. In the presence of ds plasmid DNA the absorption peaks of compound I at 373 and 391 nm decreased, and a new peak appears with a maximum at 435 nm (FIG. 1E). An overlay of the absorption spectra in complex with dsDNA at different bp per dye ratios gives a single isosbestic point at 398 nm. Free compound I fluoresces around 438 nm (the exact position of the peak depends on the excitation wavelength). […] At the same time, a new peak evolves with a maximum around 484 nm (FIG. 1F). The exact maximum of fluorescence of compound I/DNA complexes varies insignificantly as a function of the dye/bp ratio and/or base pairs composition of the nucleic acids. […] The quantum yield for compound I (excited at 435 nm) at 5 μM in 50 mM Na-phosphate, pH 7.2, was determined to be 2.7% for free dye and 13.8% in admixture with 50 μM CT DNA.
(§4) To get a further insight into how the structural properties of compound I contribute to its binding to DNA, the inventors analysed fourteen structural analogues present in the compound library. Although several of these compounds are fluorescent in vivo, this property went undetected in the initial screen most likely due to the latency period before the appearance of the signal (see below). To evaluate the activity of compound I-like molecules three tests were used: (1) in vivo, the inventors incubated human fibroblasts in the presence of the molecules and scored nuclear fluorescence in the microscope; (2 and 3) in vitro, the inventors looked at the absorption and fluorescence of free molecules before and after addition of plasmid DNA. […] With the exception of compound I and analogues 8 and 12, accurate in vitro measurement of the fluorescence intensities was impossible because the emission peaks for the free molecules were too close to that for the DNA-bound dye. This affected the height of the dye/DNA peaks.

[2] = test system: plasmid DNA; assay: fluorescence of free molecules before and after addition of plasmid DNA; type: physicochemical; parameters: Fluorescence maxima free dye / Fluorescence maxima DNA bound dye: unit not given beside the values; conditions: for Fluorescence maxima DNA bound dye: after addition of plasmid DNA; for Fluorescence maxima free dye: free molecule, before addition of plasmid DNA
Experimental: as §1, §2, §3, §4

[3] = test system: human fibroblasts; assay: in vivo nuclear fluorescence of human fibroblasts incubated with the molecules, scored in the microscope; type: cell-based; parameters: key: Weak: Staining was defined as “weak”, “moderate” or “strong” based on the nuclear signal/background ratio.; Moderate: Staining was defined as “weak”, “moderate” or “strong” based on the nuclear signal/background ratio.; Strong: Staining was defined as “weak”, “moderate” or “strong” based on the nuclear signal/background ratio; conditions: 10 μM, 10-60 min (up to 24 hours); Alexa488/FITC filter
Experimental: In this study, three different types of cells were used: Xenopus epithelial cell line XL177 (Miller, L. et al., 1977, In Vitro, 13, 557-563) stably transformed with a YFP-α-tubulin expressing construct (pEYFP-Tub, Clontech), mouse fibroblasts, and primary human skin fibroblasts. XL177 cells were grown at 20° C. in 60% Leibowitz-15 medium, supplemented with antibiotics, 10% fetal calf serum (FCS) and 10 mM HEPES, pH 7.2 with addition of 0.7 mg/ml G418. Cells were plated into glass-bottom 96-well plates (Greiner, Germany) and left to spread for 24 hours before being incubated in the presence of the test compounds from the Curie-CNRS small molecule library (at 25 or 50 μM final concentration) for another 20-24 hours. Mouse and human fibroblasts were grown in DMEM with antibiotics and 10% FCS at 37° C. in the presence of 5% CO2. The cells were observed using a Zeiss Axiovert 200M microscope with a 40× oil immersion objective and a standard Alexa488/FITC filter (Omega, XF100-2; Ex475AF40/Em535AF45/Dichroic505). Subsequent experiments were carried out using smaller concentrations of compound I and incubation times as described in the text and figures legends. For the in vivo tests of compound I-like compounds, the molecules were added to cell culture medium at 10 μM final concentration and incubated with cells 10-60 min (up to 24 hours) prior to scoring.
as §4

SMILES: CC(CO)(CO)NCc1nc2c3ccccc3cnc2c2ccccc12 [Compound 7, N′-dibenzo[c,h][1,5]naphthyridin-6-yl-methylamino-2-methyl-propane-1,3-diol]
- Absorption maxima free dye [1]: 365/ND
- melting point: 156 °C

SMILES: COc1ccc2c(c1)c(NCCCN(C)C)nc1c3ccc(OC)cc3c(NCCCN(C)C)nc21 [Compound 11, N,N′-bis-(3-dimethylaminopropyl)-2,8-dimethoxy-dibenzo[c,h][1,5]naphthyridin-6,12-diamine]
- Fluorescence maxima DNA bound dye [2]: 500
- Fluorescence maxima free dye [2]: 484
- Images of the in vivo nuclear staining [3]: Moderate/ Strong
- Absorption maxima DNA bound dye [1]: 405
- Absorption maxima free dye [1]: 390
- melting point: 216 °C

SMILES: COc1ccc2c(c1)c(NCCCN(C)C)nc1c3ccccc3c(NCCCN(C)C)nc21 [Compound 10, N6,N12-bis-(3-dimethylamino-propyl)-2-methoxy-dibenzo[c,h][1,5]naphthyridine-6,12-diamine]
- Fluorescence maxima DNA bound dye [2]: 485
- Fluorescence maxima free dye [2]: 478
- Images of the in vivo nuclear staining [3]: Moderate/ Strong
- Absorption maxima DNA bound dye [1]: 402
- Absorption maxima free dye [1]: 380
- melting point: 155 °C

SMILES: Cc1nc2c3ccccc3cnc2c2ccccc12 [Compound 1, 6-Methyl-dibenzo[c,h][1,5]naphthyridine]
- melting point: 153 °C

SMILES: COc1ccc2c(c1)c(C)nc1c3ccc(OC)cc3c(NCCN(C)C)nc21 [Compound 12, N′-(2,8-dimethoxy-12-methyl-dibenzo[c,h][1,5]naphthyridin-6-yl)-N,N-dimethyl-ethane-1,3-diamine]
- Fluorescence maxima DNA bound dye [2]: 475
- Fluorescence maxima free dye [2]: 435
- Images of the in vivo nuclear staining [3]: Weak
- Absorption maxima DNA bound dye [1]: 435
- Absorption maxima free dye [1]: 390

SMILES: OCCNCCNc1nc2c3ccccc3cnc2c2ccccc12 [Compound 3, 2-[2-(Dibenzo[c,h][1,5]naphthyridin-6-ylamino)-ethylamino]-ethanol]
- Absorption maxima DNA bound dye [1]: 375/375
- Absorption maxima free dye [1]: 375/375
- melting point: 100 °C

SMILES: COc1ccc2c(c1)c(NCCN(C)C)nc1c3ccc(OC)cc3c(NCCN(C)C)nc21 [Compound 14, N,N′-bis-(3-dimethylamino-ethyl)-2,8-dimethoxy-dibenzo[c,h][1,5]naphthyridin-6,12-diamine]
- Fluorescence maxima DNA bound dye [2]: 482
- Fluorescence maxima free dye [2]: 468
- Images of the in vivo nuclear staining [3]: Weak
- Absorption maxima DNA bound dye [1]: 400/400
- Absorption maxima free dye [1]: 400/400
- melting point: 209 °C

SMILES: COc1ccc2c(c1)c(NCCN(C)C)nc1c3ccccc3c(NCCN(C)C)nc21 [Compound 9, N6,N12-bis-(2-dimethylamino-ethyl)-2-methoxy-dibenzo[c,h][1,5]naphthyridin-6,12-diamine]
- Fluorescence maxima DNA bound dye [2]: 472
- Fluorescence maxima free dye [2]: 468
- Images of the in vivo nuclear staining [3]: Weak
- Absorption maxima DNA bound dye [1]: 395
- Absorption maxima free dye [1]: 375
- melting point: 169 °C

SMILES: COc1ccc2c(c1)c(C)nc1c3ccccc3c(NCCCN(C)C)nc21 [Compound 8, N′-(2-methoxy-12-methyl-dibenzo[c,h][1,5]naphthyridin-6-yl)-N,N-dimethyl-propane-1,3-diamine]
- Fluorescence maxima DNA bound dye [2]: 468
- Fluorescence maxima free dye [2]: 427
- Absorption maxima DNA bound dye [1]: 425
- Absorption maxima free dye [1]: 385
- melting point: 139 °C

SMILES: COc1ccc2c(cnc3c4ccc(OC)cc4c(NCCN(C)C)nc23)c1 [Compound 13, N′-(2,8-dimethoxy-dibenzo[c,h][1,5]naphthyridin-6-yl)-N,N-dimethyl-ethane-1,3-diamine]
- Fluorescence maxima DNA bound dye [2]: 407
- Fluorescence maxima free dye [2]: 425
- Images of the in vivo nuclear staining [3]: Moderate^§
- Absorption maxima DNA bound dye [1]: 394
- Absorption maxima free dye [1]: 390

SMILES: CN(C)CCNCc1nc2c3ccccc3cnc2c2ccccc12 [Compound 5, N′-dibenzo[c,h][1,5]naphthyridin-6-yl-methyl-N,N-dimethyl-ethane-1,2-diamine]
- melting point: 160 °C

SMILES: CN(C)CCNc1nc2c3ccccc3cnc2c2ccccc12 [Compound 4, N′-Dibenzo[c,h][1,5]naphthyridin-6-yl-N,N-dimethyl-ethane-1,3-diamine]
- Fluorescence maxima free dye [2]: 404/ND
- Absorption maxima DNA bound dye [1]: 375
- Absorption maxima free dye [1]: 370

SMILES: CN(C)CCCNCc1nc2c3ccccc3cnc2c2ccccc12 [Compound 6, N′-dibenzo[c,h][1,5]naphthyridin-6-yl-methyl-N,N-dimethyl-propane-1,3-diamine]
- melting point: 45 °C

SMILES: CCN(CC)CCCNCc1nc2c3ccccc3cnc2c2ccccc12 [Compound 2, N′-Dibenzo[c,h][1,5]naphthyridin-6-ylmethyl-N,N-diethyl-propane-1,3-diamine]
- Absorption maxima DNA bound dye [1]: 365
- Absorption maxima free dye [1]: 360
